Laboratory results published in patent US20260258035A1, “FIVE-MEMBERED AND SIX-MEMBERED NITROGEN-CONTAINING COMPOUND, AND INTERMEDIATE, PREPARATION METHOD AND USE THEREOF” (HANGZHOU SYNRX THERAPEUTICS BIOMEDICAL TECHNOLOGY CO., LTD., priority 2022, published 2026).
Where two headings read alike, the source gives them in different places.

What was measured:
PARG = PARG (Homo sapiens, UniProt Q86W56); test: Biochemical assay (PARG, TFMU-ADPr substrate)
HCC1806 = test: Cell viability assay (CellTiter-Glo); type: cell-based, Human; details: HCC1806, 7 days, CellTiter-Glo, read-out: IC50 (nM) in cell viability assay
[1] = 4 nM PARG, 66.2 uM TFMU-ADPr, 3 min at room temperature

Chain of PARG (Q86W56 whole entry): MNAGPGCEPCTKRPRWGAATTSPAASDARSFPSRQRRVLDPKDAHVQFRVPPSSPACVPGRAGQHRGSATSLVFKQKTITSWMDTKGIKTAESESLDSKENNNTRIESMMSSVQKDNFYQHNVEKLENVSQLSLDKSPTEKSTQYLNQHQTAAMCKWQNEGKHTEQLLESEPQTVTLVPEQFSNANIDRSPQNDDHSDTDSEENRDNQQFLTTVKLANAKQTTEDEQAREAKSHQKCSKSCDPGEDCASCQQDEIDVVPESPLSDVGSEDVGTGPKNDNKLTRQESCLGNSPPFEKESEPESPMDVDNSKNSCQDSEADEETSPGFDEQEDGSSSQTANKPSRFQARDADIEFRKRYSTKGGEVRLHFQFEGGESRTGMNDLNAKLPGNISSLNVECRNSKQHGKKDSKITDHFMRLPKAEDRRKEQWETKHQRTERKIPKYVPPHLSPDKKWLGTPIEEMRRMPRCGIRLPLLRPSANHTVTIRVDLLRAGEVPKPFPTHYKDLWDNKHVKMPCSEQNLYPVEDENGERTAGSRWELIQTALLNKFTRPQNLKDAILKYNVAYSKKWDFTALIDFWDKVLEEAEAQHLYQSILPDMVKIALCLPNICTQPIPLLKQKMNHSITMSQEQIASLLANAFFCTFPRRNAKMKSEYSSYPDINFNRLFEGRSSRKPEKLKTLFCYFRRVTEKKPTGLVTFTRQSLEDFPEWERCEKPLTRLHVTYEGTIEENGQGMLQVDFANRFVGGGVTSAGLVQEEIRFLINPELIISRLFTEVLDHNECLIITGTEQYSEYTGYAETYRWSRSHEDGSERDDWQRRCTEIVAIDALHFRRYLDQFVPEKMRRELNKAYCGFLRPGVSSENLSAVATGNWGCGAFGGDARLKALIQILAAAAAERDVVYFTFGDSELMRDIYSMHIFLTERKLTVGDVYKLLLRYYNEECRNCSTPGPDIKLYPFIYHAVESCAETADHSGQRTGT

IC50 (PARG; [1]) | IC50 (PARG; PARG, TFMU-ADPr substrate) | IC50 (HCC1806) | IC50 (HCC1806; Homo sapiens, HCC1806, 168 h) | SMILES
< 100 nM | 30.5 nM | 7000 nM | 5000 to 30000 nM | CC(C)(O)C1CCN(c2cc(S(=O)(=O)NC3(CF)CC3)cn3c(-c4nnc(C(F)F)s4)nnc23)CC1 [Example 109, 3-(5-(difluoromethyl)-1,3,4-thiadiazol-2-yl)-N-(1-(fluoromethyl)cyclopropyl)-8-(4-(2-hydroxypropan-2-yl)piperidin-1-yl)-[1,2,4]triazolo[4,3-a]pyridine-6-sulfonamide]
– | 0.83 nM | – | 30 nM | COC1(C(=O)N2CCN(c3cc(S(=O)(=O)NC4(C#N)CC4)cn4c(-c5nnc(C(F)F)s5)ncc34)CC2)CC1 [Example 192, N-(1-cyanocyclopropyl)-3-(5-(difluoromethyl)-1,3,4-thiadiazol-2-yl)-8-(4-(1-methoxycyclopropane-1-carbonyl)piperazin-1-yl)imidazo[1,5-a]pyridine-6-sulfonamide]
– | 4.46 nM | – | 120 nM | CN1CCC[C@@H]1C(=O)N1CCN(c2cc(S(=O)(=O)NC3(C)CC3)cn3c(-c4nnc(C(F)(F)F)s4)ncc23)CC1 [Example 325, 8-(4-(methyl-D-prolyl)piperazin-1-yl)-N-(1-methylcyclopropyl)-3-(5-(trifluoromethyl)-1,3,4-thiadiazol-2-yl)imidazo[1,5-a]pyridine-6-sulfonamide]
< 100 nM | 41.7 nM | 431 nM | < 500 nM | CC(C)C(=O)N1CCN(c2cc(S(=O)(=O)NC3(C)CC3)cn3c(-c4nnc(C(F)(F)F)s4)nnc23)C[C@H]1C [Example 119, (R)-8-(4-isobutyryl-3-methylpiperazin-1-yl)-N-(1-methylcyclopropyl)-3-(5-(trifluoromethyl)-1,3,4-thiadiazol-2-yl)-[1,2,4]triazolo[4,3-a]pyridine-6-sulfonamide]
– | 20 nM | – | 1000 nM | CC(C)C(=O)N1CCN(c2cc(S(=O)(=O)NC3(C)CC3)cn3c(-c4nnc(C(F)F)s4)nc(C#N)c23)C[C@H]1C [Example 165, (R)-1-cyano-3-(5-(difluoromethyl)-1,3,4-thiadiazol-2-yl)-8-(4-isobutyryl-3-methylpiperazin-1-yl)-N-(1-methylcyclopropyl)imidazo[1,5-a]pyridine-6-sulfonamide]
– | 31.6 nM | 403 nM | – | N#CC1(NS(=O)(=O)c2cc(N3CCN(C(=O)C4CCO4)CC3)c3cnc(-c4nnc(C(F)(F)F)s4)n3c2)CC1 (stereo not drawn) [Example 300, N-(1-cyanocyclopropyl)-8-(4-(oxetane-2-carbonyl)piperazin-1-yl)-3-(5-(trifluoromethyl)-1,3,4-thiadiazol-2-yl)imidazo[1,5-a]pyridine-6-sulfonamide]
– | 38.3 nM | – | 586 nM | CC(C)C(=O)N1CCN(c2cc(S(=O)(=O)NC3(C#N)CC3)cn3c(-c4nnc(C(F)(F)F)s4)ncc23)C(C)C1 (stereo not drawn) [Example 344, N-(1-cyanocyclopropyl)-8-(4-isobutyryl-2-methylpiperazin-1-yl)-3-(5-(trifluoromethyl)-1,3,4-thiadiazol-2-yl)imidazo[1,5-a]pyridine-6-sulfonamide]
– | 4.82 nM | – | 257 nM | CC1(NS(=O)(=O)c2cc(N3CCN(C(=O)C4NCCS4)CC3)c3cnc(-c4nnc(C(F)(F)F)s4)n3c2)CC1 (stereo not drawn) [Example 326, N-(1-methylcyclopropyl)-8-(4-(thiazolidine-2-carbonyl)piperazin-1-yl)-3-(5-(trifluoromethyl)-1,3,4-thiadiazol-2-yl)imidazo[1,5-a]pyridine-6-sulfonamide]
– | 3.98 nM | – | 235 nM | CC1(NS(=O)(=O)c2cc(N3CCN(C(=O)[C@H]4CCN4)CC3)c3cnc(-c4nnc(C(F)(F)F)s4)n3c2)CC1 [Example 286, (R)-8-(4-(azetidine-2-carbonyl)piperazin-1-yl)-N-(1-methylcyclopropyl)-3-(5-(trifluoromethyl)-1,3,4-thiadiazol-2-yl)imidazo[1,5-a]pyridine-6-sulfonamide]
– | 4.82 nM | – | 245 nM | CN(C)CC1(O)CCN(c2cc(S(=O)(=O)NC3(C)CC3)cn3c(-c4nnc(C(F)F)s4)ncc23)CC1 [Example 337, 3-(5-(difluoromethyl)-1,3,4-thiadiazol-2-yl)-8-(4-((dimethylamino)methyl)-4-hydroxypiperidin-1-yl)-N-(1-methylcyclopropyl)imidazo[1,5-a]pyridine-6-sulfonamide]
< 100 nM | 78.6 nM | 10000 nM | 5000 to 30000 nM | CC(C)C(=O)N1CCN(c2cc(S(=O)(=O)NC3(C#N)CC3)cn3c(-c4nnc(C(F)F)s4)nnc23)CC1 [Example 105, N-(1-cyanocyclopropyl)-3-(5-(difluoromethyl)-1,3,4-thiadiazol-2-yl)-8-(4-isobutyrylpiperazin-1-yl)-[1,2,4]triazolo[4,3-a]pyridine-6-sulfonamide]
– | 10.8 nM | – | 745 nM | CN1CC[C@@H]1C(=O)N1CCN(c2c(F)c(S(=O)(=O)NC3(C)CC3)cn3c(-c4nnc(C(F)(F)F)s4)ncc23)CC1 [Example 332, (R)-7-fluoro-8-(4-(1-methylazetidine-2-carbonyl)piperazin-1-yl)-N-(1-methylcyclopropyl)-3-(5-(trifluoromethyl)-1,3,4-thiadiazol-2-yl)imidazo[1,5-a]pyridine-6-sulfonamide]
– | 1.51 nM | – | 6150 nM | COC1(C(=O)N2CCN(c3cc(S(=O)(=O)NC4(C#N)CC4)cn4c(-c5nnc(C(F)F)s5)ncc34)CC2)CNC1 [Example 289, N-(1-cyanocyclopropyl)-3-(5-(difluoromethyl)-1,3,4-thiadiazol-2-yl)-8-(4-(3-methoxyazetidine-3-carbonyl)piperazin-1-yl)imidazo[1,5-a]pyridine-6-sulfonamide]
– | 2.08 nM | – | 36.8 nM | C[C@H]1CN(c2cc(S(=O)(=O)NC3(C)COC3)cn3c(-c4nnc(C(F)F)s4)ncc23)C[C@H](CO)O1 [Example 396, 3-(5-(difluoromethyl)-1,3,4-thiadiazol-2-yl)-8-((2R,6S)-2-(hydroxymethyl)-6-methylmorpholino)-N-(3-methyloxetan-3-yl)imidazo[1,5-a]pyridine-6-sulfonamide]
< 100 nM | 27.5 nM | 974 nM | 500 to 5000 nM | CC1(C(=O)N2CC3CCC2CN3c2cc(S(=O)(=O)NC3(C#N)CC3)cn3c(-c4nnc(C(F)F)s4)ncc23)CC1 (stereo not drawn) [Example 92, N-(1-cyanocyclopropyl)-3-(5-(difluoromethyl)-1,3,4-thiadiazol-2-yl)-8-(5-(1-methylcyclopropane-1-carbonyl)-2,5-diazabicyclo[2.2.2]octan-2-yl)imidazo[1,5-a]pyridine-6-sulfonamide]
– | 1.45 nM | – | 250 nM | COC[C@@H]1CN(c2cc(S(=O)(=O)NC3(C#N)CC3)cn3c(-c4nnc(C(F)F)s4)ncc23)CCN1C(=O)C(C)C [Example 223, (S)-N-(1-cyanocyclopropyl)-3-(5-(difluoromethyl)-1,3,4-thiadiazol-2-yl)-8-(4-isobutyryl-3-(methoxymethyl)piperazin-1-yl)imidazo[1,5-a]pyridine-6-sulfonamide]
– | 6.55 nM | – | 828 nM | CC1(NS(=O)(=O)c2cc(N3CCN(C(=O)C4(OCC(=O)O)CC4)CC3)c3cnc(-c4nnc(C(F)F)s4)n3c2)CC1 [Example 382, 2-(1-(4-(3-(5-(difluoromethyl)-1,3,4-thiadiazol-2-yl)-6-(N-(1-methylcyclopropyl)sulfamoyl)imidazo[1,5-a]pyridin-8-yl)piperazine-1-carbonyl)cyclopropoxy)acetic acid]
